Laboratory results published in ChEMBL document CHEMBL3885861, “Open TG-GATES”.

Species: Rattus norvegicus
Assay: Open TG-GATES - Regimen: Single
Assay type: toxicity, organism-based, Sprague-Dawley
Parameters: regimen Single, gender Male, age 6 weeks
Details: in vivo, po, 30 mg/kg, route gavage, dose level Middle; for APTT / Bas / Eos / Fbg / Hb / Ht / Lym / MCH / MCHC / MCV / Mono / Neu / PT / Plat / RBC / Ret / WBC: tissue Blood; for KIDNEY_L / KIDNEY_R / KIDNEY_TOTAL: tissue Kidney; for LIVER: tissue Liver; for ALP / ALT / AST / BUN / CRE / Ca / DBIL / GLC / IP / K / LDH / Na / PL / RALB / TBIL / TC / TG / TP / gamma-GTP: tissue Plasma

CSc1ccc2c(c1)N(CCC1CCCCN1C)c1ccccc1S2 (configuration not stated) [THIORIDAZINE]
TERMINAL_BW (3 h): 215.8 g
APTT (3 h): 16.7 s
Bas (3 h): 0%
Eos (3 h): 1%
Fbg (3 h): 201.2 mg/dL
Hb (3 h): 12.4 g/dL
Ht (3 h): 37.2%
Lym (3 h): 73.8%
MCH (3 h): 22.1 pg
MCHC (3 h): 33.3%
MCV (3 h): 66.4 fL
Mono (3 h): 8.8%
Neu (3 h): 16.8%
PT (3 h): 12.5 s
Plat (3 h): 102.7 x10_4/uL
RBC (3 h): 560.6 x10_4/ul
Ret (3 h): 8.6%
WBC (3 h): 77.9 x10_2/uL
KIDNEY_L (3 h): 1 g
KIDNEY_R (3 h): 1 g
KIDNEY_TOTAL (3 h): 2 g
LIVER (3 h): 10.5 g
ALP (3 h): 794 IU/L
ALT (3 h): 37.8 IU/L
AST (3 h): 66.6 IU/L
BUN (3 h): 12.4 mg/dL
CRE (3 h): 0.5 mg/dL
Ca (3 h): 11.1 mg/dL
DBIL (3 h): 0.04 mg/dL
GLC (3 h): 206.6 mg/dL
IP (3 h): 10.3 mg/dL
K (3 h): 4.4 meq/L
LDH (3 h): 91.2 IU/L
Na (3 h): 139 meq/L
PL (3 h): 127.2 mg/dL
RALB (3 h): 3.6 g/dL
TBIL (3 h): 0.4 mg/dL
TC (3 h): 70.2 mg/dL
TG (3 h): 43.6 mg/dL
TP (3 h): 5.2 g/dL
gamma-GTP (3 h): 1 IU/L
TERMINAL_BW (6 h): 216.3 g
APTT (6 h): 15.9 s
Bas (6 h): 0%
Eos (6 h): 0.6%
Fbg (6 h): 230.2 mg/dL
Hb (6 h): 12.5 g/dL
Ht (6 h): 37.5%
Lym (6 h): 74.2%
MCH (6 h): 21.9 pg
MCHC (6 h): 33.2%
MCV (6 h): 66 fL
Mono (6 h): 7.8%
Neu (6 h): 17.4%
PT (6 h): 12 s
RBC (6 h): 569.4 x10_4/ul
Ret (6 h): 8%
WBC (6 h): 91.2 x10_2/uL
KIDNEY_L (6 h): 1 g
KIDNEY_R (6 h): 1 g
KIDNEY_TOTAL (6 h): 2 g
LIVER (6 h): 10.3 g
ALP (6 h): 765.6 IU/L
ALT (6 h): 30.2 IU/L
AST (6 h): 63.2 IU/L
BUN (6 h): 10.2 mg/dL
CRE (6 h): 0.5 mg/dL
Ca (6 h): 10.8 mg/dL
DBIL (6 h): 0.022 mg/dL
GLC (6 h): 208.6 mg/dL
IP (6 h): 10.9 mg/dL
K (6 h): 4.5 meq/L
LDH (6 h): 98.4 IU/L
Na (6 h): 139.4 meq/L
PL (6 h): 154 mg/dL
RALB (6 h): 3.8 g/dL
TBIL (6 h): 0.4 mg/dL
TC (6 h): 81.4 mg/dL
TG (6 h): 62.8 mg/dL
TP (6 h): 5.4 g/dL
gamma-GTP (6 h): 1.6 IU/L
TERMINAL_BW (9 h): 213.1 g
APTT (9 h): 16.2 s
Bas (9 h): 0%
Eos (9 h): 0.4%
Fbg (9 h): 213.4 mg/dL
Hb (9 h): 12.6 g/dL
Ht (9 h): 38%
Lym (9 h): 80.6%
MCH (9 h): 21.8 pg
MCHC (9 h): 33.3%
MCV (9 h): 65.6 fL
Mono (9 h): 6%
Neu (9 h): 13.2%
PT (9 h): 12.3 s
Plat (9 h): 108 x10_4/uL
RBC (9 h): 578.8 x10_4/ul
Ret (9 h): 7.8%
WBC (9 h): 109.8 x10_2/uL
KIDNEY_L (9 h): 0.9 g
KIDNEY_R (9 h): 1 g
KIDNEY_TOTAL (9 h): 1.9 g
LIVER (9 h): 9.6 g
ALP (9 h): 971.8 IU/L
ALT (9 h): 28.2 IU/L
AST (9 h): 58.2 IU/L
BUN (9 h): 12.6 mg/dL
CRE (9 h): 0.6 mg/dL
Ca (9 h): 10.9 mg/dL
DBIL (9 h): 0.018 mg/dL
GLC (9 h): 215.6 mg/dL
IP (9 h): 10.6 mg/dL
K (9 h): 4.3 meq/L
LDH (9 h): 82.4 IU/L
Na (9 h): 141 meq/L
PL (9 h): 148.8 mg/dL
RALB (9 h): 3.8 g/dL
TBIL (9 h): 0.4 mg/dL
TC (9 h): 82.2 mg/dL
TG (9 h): 59.6 mg/dL
TP (9 h): 5.6 g/dL
gamma-GTP (9 h): 1.4 IU/L
TERMINAL_BW (24 h): 225.1 g
APTT (24 h): 16 s
Bas (24 h): 0%
Eos (24 h): 1%
Fbg (24 h): 215.4 mg/dL
Hb (24 h): 13.4 g/dL
Ht (24 h): 40.3%
Lym (24 h): 77.2%
MCH (24 h): 21.5 pg
MCHC (24 h): 33.3%
MCV (24 h): 64.6 fL
Mono (24 h): 9%
Neu (24 h): 12.8%
PT (24 h): 12.1 s
Plat (24 h): 108 x10_4/uL
RBC (24 h): 623.4 x10_4/ul
Ret (24 h): 8%
WBC (24 h): 124.9 x10_2/uL
KIDNEY_L (24 h): 1 g
KIDNEY_R (24 h): 1 g
KIDNEY_TOTAL (24 h): 2 g
LIVER (24 h): 11.7 g
ALP (24 h): 905.2 IU/L
ALT (24 h): 43 IU/L
AST (24 h): 69.8 IU/L
BUN (24 h): 19.4 mg/dL
CRE (24 h): 0.5 mg/dL
Ca (24 h): 11.5 mg/dL
DBIL (24 h): 0.062 mg/dL
GLC (24 h): 190.2 mg/dL
IP (24 h): 9.3 mg/dL
K (24 h): 4.9 meq/L
LDH (24 h): 89.2 IU/L
Na (24 h): 139.2 meq/L
PL (24 h): 163 mg/dL
RALB (24 h): 4 g/dL
TBIL (24 h): 0.3 mg/dL
TC (24 h): 84.4 mg/dL
TG (24 h): 119.8 mg/dL
TP (24 h): 5.9 g/dL
